This passage reports melting point results from a melting point compilation (Tetko et al.; mined from patent text by program, amines drawn as free bases though some values may be those of a salt).

For the compound `COC(=O)c1cc(CCCc2cc3c(=O)[nH]c(N)nc3[nH]2)cs1`, the melting point (usually the temperature of the solid-liquid transition) fell in the range of 182 to 183 °C. The result for `CC(C)N(C(=O)CC(c1ccccc1)c1cc(Br)ccc1OCc1ccccc1)C(C)C` (configuration not stated) reads 102 °C; that for `CN(C)c1nnc(Br)c(=O)[nH]1`, 261 to 262 °C. As to `COc1cc(OC)c(C(=O)CC(=O)c2cc(OC)c(OC)c(OC)c2)cc1OC`, the melting point lay in the range of 154 to 156 °C. For `Cc1nc(NC(=O)c2cnn3c(C(F)(F)F)cc(-c4ccc(C(F)(F)F)cc4)nc23)sc1S(=O)(=O)NC(CO)CO` the value was 215 °C; for `CC(=O)C(=NNc1cccc(C(F)(F)F)c1)C(C)=O`, 108 to 109 °C; for `O=C1OCN(C(=O)OCc2ccccc2)[C@H]1Cc1ccccc1`, 85.5 to 86.5 °C. The compound `CCOC(=O)c1c(Cn2cncn2)nc2cc(OC)c(OC)cc2c1-c1ccc(O)c(O)c1` returned a melting point of 122 to 124 °C.

In turn, `O=C(O)C(=O)c1cc(F)ccc1NC(=O)c1ccc(-c2ccccc2)cc1` registered a melting point of 204 to 206 °C. For the compound `O=C(O)c1cc(=O)c2cc(C(F)(F)F)ccc2[nH]1`, the melting point is 287 to 289 °C. As for `Cc1ccc2c(c1)CCN2c1ccccc1C#N`, the melting point fell in the range of 59 to 60 °C. On to `CCN(CC)C(C)CN1CCc2c(c(=O)oc3cc(C)c(Cl)cc23)C1` (configuration not stated), for which the melting point is 78 to 80 °C. Turning to `CN1C(=O)N(CBr)C(=O)C1(C)C`, the melting point lay in the range of 86 to 88 °C. Compound `Cc1sc2c(Br)c3ccccc3c(-c3cc(Br)c(O)c(C4CCCC4)c3)c2c1C` came in with a melting point of 190 to 191 °C. Compound `CCOC(=O)CC(=O)C=CNc1cc(C)no1` registered a melting point of 93 to 95 °C. `O=S(=O)(NN=C(Cl)c1ccccc1Br)c1ccccc1` displayed a melting point of 120 to 122 °C. For `COc1cc(CN(C)c2nn(-c3ccccc3)cc2C=O)ccc1OCc1nc(-c2ccco2)oc1C` the value was 101 to 102 °C; for `O=S(=O)(c1ccccc1)N1CCCCC1CSc1ccc(Cl)cc1` (configuration not stated), 78.5 to 80 °C. As to `CC(C)(C(=O)O)c1ccc(OCCCc2cc3c(cc2O)CC(CCc2ccccc2)O3)cc1` (configuration not stated), the melting point lay within 134 to 136 °C. On to `CS(=O)(=O)c1ccc(-c2cnn(-c3cccc(F)c3)c(=O)c2-c2ccc(F)cc2)cc1`, for which the melting point lay in the range of 245 to 247 °C. The compound `CN(C)c1ccc(C2(c3ccc(N(C)C)cc3N(C)C)OC(=O)c3ccc(N(C)C)cc32)cc1` (configuration not stated) showed a melting point of 222 to 225 °C.

`CN(C)CCOc1ccccc1NC(=O)c1cccc2[nH]ccc12`: the melting point stood at 110 °C.

Turning to `CSC1(N)N=C(N(C)C)N=C(N)N1` (configuration not stated), the melting point is 207 to 212 °C. In turn, `CC(C)(C)OC(=O)Nc1ccc(OC2CN(C(c3ccccc3)c3ccccc3)C2)cc1` came in with a melting point of 149 to 151 °C.

The compound `O=C1NC(=O)C(Nc2cccc3ccccc23)S1` (configuration not stated) showed a melting point of 195 to 197 °C. As for `O=C(NC1CCN(Cc2ccccc2)CC1)c1c[nH]c2ccc(F)cc12`, the melting point lay within 215 to 217 °C.

The compound `CCO/C(=N/O)C1Cc2cc(C(=O)CC)c(O)c(Cl)c2O1` (configuration not stated) returned a melting point of 146 to 147 °C. The result for `Cc1ccccc1C1C(C#N)=C(c2cccs2)Nc2n[nH]cc21` (configuration not stated) reads 276 °C; that for `CN1CCN(c2ccccc2C=C2CCCN(c3ccc(Cl)c(Cl)c3)C2=O)CC1`, 138 to 140 °C; that for `O=C(CCCOc1cccc(CNC(=O)c2nc3ccccc3c(=O)[nH]2)c1)Nc1nc[nH]n1`, 189 to 190 °C. `COC(=O)C(=O)CC(=O)c1ccc(C2CCCCC2)cc1` returned a melting point of 96 to 98 °C. `Cc1ccccc1-c1ccc(C(=O)N2Cc3ccc(C(=O)NCCc4cccc(Cl)c4)n3Cc3ccccc32)cc1C` came in with a melting point of 174 to 176 °C. `CN(c1ccccc1)P(N)(N)=O` yielded a melting point of 97 to 99 °C.

In turn, `CCOc1ccc(-n2c(NCc3ccc(Br)cc3)nc3ccc(Cl)cc32)cc1` showed a melting point of 140 to 141 °C. Compound `Nc1ccc(Cl)cc1C(=O)c1c(F)cccc1F` gave a melting point of 103 to 105 °C. For `CCCCCCCCCCc1ccc2cc(O)c(SC)cc2c1` the value was 65.5 to 66 °C. With `COc1ccc(C2=NNC(=O)[C@H]3CC=CC[C@@H]23)cc1Cl` (relative stereo), the melting point was 183 to 185 °C. For `C=C(C)C(=O)NCCNC(=O)CCl` the value was 126 to 128 °C; for `Cn1ccc2c(C(=O)c3ccccc3O)cccc21`, 80 °C; for `C(=C(c1ccccc1)c1ccccc1)c1ccc(N(c2ccccc2)c2ccc(N(c3ccccc3)c3ccccc3)cc2)cc1`, 218 to 219 °C. Consider `Cc1nc(N2CCN(Cc3ccccc3)C2=O)sc1C(=O)NCc1cccc(F)c1`, for which the melting point lay within 169 to 171 °C.

The compound `COc1ccc2c(c1)C(=O)c1ccc(OC)cc1C2(Cc1ccnc(F)c1)Cc1ccnc(F)c1` displayed a melting point of 151 to 152 °C.

`CCCc1cc(N2CCC(NCC(O)c3cnc4ccccc4c3)CC2)nc2sc(C(N)=O)c(N)c12` (configuration not stated): the melting point was 213 to 216 °C. Compound `CCOc1ccc(NC(=O)OC(C)(C)C)c(C)c1` gave a melting point of 55 to 56 °C. On to `N#Cc1cc(-c2cccnc2)nn1-c1ccc(NC(=O)c2ccc(OCCCC3OCCO3)nc2)cc1`, for which the melting point fell in the range of 197 to 198 °C. Take `COC(=O)[C@@H]1COC(=O)N1c1nc(-c2ccc(Br)cc2)cs1`: the melting point was in the range of 165 to 167 °C.

`COc1ccc(/C(=C/C=C/C(=O)Oc2ccc([N+](=O)[O-])cc2)c2ccccc2)cc1` came in with a melting point of 113 to 115 °C. For `CC(C)(C)OC(=O)[C@H]1C[C@@H](S(=O)(=O)c2ccccc2)[C@@H](c2ccccc2)N1C(=O)CNC(=O)Nc1cccc(C(=O)OCc2ccccc2)c1` (racemic) the value was 212 °C; for `OCCCc1cnoc1-c1ccc(F)c(Br)c1`, 57 to 58 °C. For `COc1ccc(C2(c3ccc(O)c(C)c3)c3ccccc3-c3ccccc32)cc1` the value was 186 to 188 °C; for `O=C(CCCl)c1ccc(O)c(Cl)c1Cl`, 109 to 111 °C. With `Nc1nc(Cl)c2ncn(COCCOCCOC(=O)c3ccccc3)c2n1`, the melting point fell in the range of 111 to 112 °C.

Turning to `Cc1ccc(NC(=O)c2cn(-c3ccccc3)c3ccccc3c2=O)nc1`, the melting point lay within 248 to 250 °C. `CN1CCN(c2ncc3c(=O)c(C(=O)O)cn(C4CC4)c3n2)CC1` showed a melting point of 209 to 210 °C. For `O=C(O)CNC(=O)C=C(c1ccc(Cl)cc1)c1ccc(Cl)cc1`, the melting point lay in the range of 166 to 168 °C. In turn, `CN(C)S(=O)(=O)c1cc(Cl)c(Cl)c(Cl)c1SCSC#N` returned a melting point of 155 to 156 °C. For the compound `Cc1ccc(-c2c3c(cc4ccc(O)cc24)-c2ccc(O)cc2CO3)cc1`, the melting point lay within 238 to 240 °C. Regarding `CC(=O)N(CC(C)C)C1NC(=O)N(c2ccc(C(=O)O)cc2)C(=O)N1`, the melting point fell in the range of 191 to 193 °C. `Cc1cc(C(=O)NN)ccc1Br` displayed a melting point of 164 to 166 °C. Take `COC(=O)N1C=C(C=O)CC([C@@H]2CCCN2C)=C1`: the melting point lay within 78 to 80 °C. `CCOC(=O)C1=C(C)NC(c2nccn2Cc2ccccc2)=NC1c1ccc(F)cc1` (configuration not stated) yielded a melting point of 162 to 164 °C.

The compound `COc1ccc(OC)c(CC(NC(=O)CC(C2CCCCC2)C2CCCCC2)C(=O)OC(C)(C)C)c1` (configuration not stated) gave a melting point of 108 to 111 °C.

On to `CN1CCN(CC(=O)C2CC3c4cccc5[nH]cc(c45)CC3N(C)C2)CC1` (configuration not stated), for which the melting point lay within 198 to 202 °C.

Consider `COc1ccc(C2CCN(c3c(C)c(C)c4c(c3C)C(Nc3ccccc3)C(C)(C)O4)CC2)cc1OC` (configuration not stated), for which the melting point is 138 to 140 °C. The result for `O=C(O)Cn1cc(Cc2nc3c(F)c(F)cc(F)c3s2)c2cccc(F)c21` reads 194 to 196 °C; that for `Cc1ccc(C(C)(O)P(O)O)cc1` (configuration not stated), 115 °C; that for `Nc1nc(-c2cc(Cl)ccc2Cl)nc(N2CCCC2)n1`, 191 to 193 °C. For `N#Cc1c(Cl)c(F)cc2c(=O)c(C(=O)O)cn(C3CC3)c12` the value was 281 to 282 °C; for `Nc1cccc(C(=O)Nc2nccn(-c3ccccc3)c2=O)c1`, more than 250 °C; for `Cn1nc(C(=O)O)cc1-c1ccccc1`, 149 to 150 °C. As for `O=C(O)c1c[nH]c(=S)n1C1CCc2cc(F)cc(F)c2C1` (configuration not stated), the melting point was in the range of 207 to 208 °C. In turn, `O=C(c1ccccc1)c1ccc2nc(-c3c[nH]c(C(=O)N4CCCC4)c3)[nH]c2c1` gave a melting point of 160 to 162 °C. Take `Cc1cccc(C(=O)CC(=O)C2CCCC2)c1O`: the melting point was 74 to 75 °C. For `CCCOc1ccc(C)cc1-c1nc2c(CCC)nn(C)c2c(=O)[nH]1` the value was 115 to 116 °C. For `Cn1cc2cc3ncc(-c4ccc(Cl)s4)nc3cc2n1` the value was 222 to 224 °C; for `Cc1ccc(CC(=O)c2sccc2S(=O)(=O)Nc2onc(C)c2Br)cc1`, 146 to 150 °C; for `CC(C)C[C@H](NC(=O)OCC1CC=CCC1)C(=O)N[C@@H](Cc1ccccc1)C(=O)CSCc1ccco1` (some centres not stated), 85 to 87 °C. Consider `NS(=O)(=O)c1ccc(-c2cnn(Cc3ccc(F)c(F)c3)c(=O)c2-c2ccc(F)cc2)cc1`, for which the melting point was 253 to 255 °C.

For the compound `O=C(Cc1ccncc1)c1ccc(F)cc1`, the melting point lay within 90 to 91 °C.

As for `CC[C@H](C)[C@H](NC(=O)OCc1ccccc1)C(=O)N[C@@H](C=O)Cc1c[nH]c2ccccc12`, the melting point was in the range of 163 to 164 °C. For `COCCN1CCSc2ccc(Nc3ncc(Cl)c(N[C@@H]4CCCC[C@H]4NS(C)(=O)=O)n3)cc2C1` the value was 140 to 143 °C; for `Cc1nc(C(F)(F)F)ccc1/C=C/C(=O)Nc1ccc2cc[nH]c2c1`, 223 °C; for `Cc1c(-c2ccccc2)oc2c(C(=O)OCC3CO3)cccc2c1=O` (configuration not stated), 103 to 105 °C. Turning to `CC(C(=O)O)c1cc(F)c([N+](=O)[O-])cc1[N+](=O)[O-]` (configuration not stated), the melting point was in the range of 141 to 142 °C. The result for `O=C(NC(NC(=S)Nc1cccnc1)C(F)(F)F)c1ccc(Cl)cc1` (configuration not stated) reads 147 to 149 °C. `CCCCSc1cc(C(=O)O)cc([N+](=O)[O-])c1-c1ccccc1`: the melting point was in the range of 147 to 148 °C.

The compound `CC(=O)OCc1ccccc1C(=O)C(N)=O` showed a melting point of 86.5 to 88 °C.
